Reference: publication PMC9851200, “Multiparameter phenotypic screening for endogenous TFEB and TFE3 translocation identifies novel chemical series modulating lysosome function” (Autophagy, 2022)

How the values were obtained:
Assay type in all cases: binding
[1] = target: kinases (KINOMEscan panel) (Homo sapiens, UniProt Q00535); settings: NEW KINOMEscan
[2] = target: T1, kinases (KINOMEscan panel) (Homo sapiens, UniProt P15735); settings: kinase PHKG2; NEW KINOMEscan
T1 sequence (P15735 1-406): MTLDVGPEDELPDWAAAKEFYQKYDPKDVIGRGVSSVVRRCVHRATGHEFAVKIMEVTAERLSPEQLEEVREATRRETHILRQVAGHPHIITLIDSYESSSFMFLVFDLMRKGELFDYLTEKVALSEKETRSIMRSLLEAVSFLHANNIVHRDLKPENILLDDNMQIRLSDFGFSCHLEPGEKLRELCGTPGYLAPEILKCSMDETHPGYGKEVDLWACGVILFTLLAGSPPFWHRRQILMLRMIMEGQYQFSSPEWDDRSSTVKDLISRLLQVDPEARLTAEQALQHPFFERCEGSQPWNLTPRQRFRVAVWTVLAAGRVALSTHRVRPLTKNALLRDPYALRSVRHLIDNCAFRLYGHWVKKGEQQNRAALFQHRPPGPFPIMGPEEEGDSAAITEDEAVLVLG

[3] = target: kinases (KINOMEscan panel) (Homo sapiens, UniProt O94921); settings: NEW KINOMEscan
[4] = target: T2, kinases (KINOMEscan panel) (Homo sapiens, UniProt Q12851); settings: kinase MAP4K2; NEW KINOMEscan
T2 sequence (Q12851 1-820): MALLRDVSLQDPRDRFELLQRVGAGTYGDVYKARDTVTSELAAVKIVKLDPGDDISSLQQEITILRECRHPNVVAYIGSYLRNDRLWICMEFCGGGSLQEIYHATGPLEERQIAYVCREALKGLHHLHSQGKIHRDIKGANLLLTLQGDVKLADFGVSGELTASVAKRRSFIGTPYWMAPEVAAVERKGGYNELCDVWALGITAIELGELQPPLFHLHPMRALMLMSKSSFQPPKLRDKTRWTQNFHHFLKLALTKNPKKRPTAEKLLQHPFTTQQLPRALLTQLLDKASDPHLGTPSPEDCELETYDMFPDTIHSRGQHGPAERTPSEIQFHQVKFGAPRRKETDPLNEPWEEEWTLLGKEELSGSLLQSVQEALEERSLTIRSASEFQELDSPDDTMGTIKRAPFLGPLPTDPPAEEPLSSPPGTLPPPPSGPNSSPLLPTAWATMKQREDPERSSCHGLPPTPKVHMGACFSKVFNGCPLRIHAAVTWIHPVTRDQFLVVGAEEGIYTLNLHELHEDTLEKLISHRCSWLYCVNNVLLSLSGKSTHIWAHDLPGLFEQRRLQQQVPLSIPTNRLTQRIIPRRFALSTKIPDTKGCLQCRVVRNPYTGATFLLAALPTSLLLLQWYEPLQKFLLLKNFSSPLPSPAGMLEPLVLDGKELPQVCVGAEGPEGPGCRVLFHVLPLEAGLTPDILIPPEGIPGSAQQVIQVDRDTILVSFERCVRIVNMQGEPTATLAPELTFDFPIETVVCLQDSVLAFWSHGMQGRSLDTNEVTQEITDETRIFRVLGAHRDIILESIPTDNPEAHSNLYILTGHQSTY

[5] = target: T3, kinases (KINOMEscan panel) (Homo sapiens, UniProt P54760); settings: EPHB4; NEW KINOMEscan
T3 sequence (P54760 16-987): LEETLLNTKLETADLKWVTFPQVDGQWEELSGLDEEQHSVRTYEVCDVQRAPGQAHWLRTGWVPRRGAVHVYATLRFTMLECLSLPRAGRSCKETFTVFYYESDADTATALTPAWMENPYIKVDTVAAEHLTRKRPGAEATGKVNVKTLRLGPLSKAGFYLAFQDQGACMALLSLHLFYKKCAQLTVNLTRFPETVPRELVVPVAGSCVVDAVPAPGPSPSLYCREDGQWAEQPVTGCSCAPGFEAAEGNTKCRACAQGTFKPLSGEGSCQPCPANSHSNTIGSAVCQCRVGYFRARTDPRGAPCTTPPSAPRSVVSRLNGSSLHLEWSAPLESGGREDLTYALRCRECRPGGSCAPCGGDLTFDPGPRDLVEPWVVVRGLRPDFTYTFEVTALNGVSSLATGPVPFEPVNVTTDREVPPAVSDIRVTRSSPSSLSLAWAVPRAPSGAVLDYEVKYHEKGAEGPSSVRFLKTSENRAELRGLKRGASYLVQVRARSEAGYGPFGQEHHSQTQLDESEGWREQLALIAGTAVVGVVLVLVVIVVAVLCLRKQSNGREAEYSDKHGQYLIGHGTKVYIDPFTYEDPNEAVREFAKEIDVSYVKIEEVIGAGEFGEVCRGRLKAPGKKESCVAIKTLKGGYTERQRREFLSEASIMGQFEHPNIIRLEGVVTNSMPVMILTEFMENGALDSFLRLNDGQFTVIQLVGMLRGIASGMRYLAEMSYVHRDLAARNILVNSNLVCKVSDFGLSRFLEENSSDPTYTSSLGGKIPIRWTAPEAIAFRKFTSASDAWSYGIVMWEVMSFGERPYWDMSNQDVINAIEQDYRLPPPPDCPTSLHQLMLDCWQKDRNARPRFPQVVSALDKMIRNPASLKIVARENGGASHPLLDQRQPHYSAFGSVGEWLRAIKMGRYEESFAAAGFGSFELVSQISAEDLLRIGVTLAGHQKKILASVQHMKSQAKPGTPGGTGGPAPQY

[6] = target: kinases (KINOMEscan panel) (Homo sapiens, UniProt Q8NEV4); settings: kinase MYO3A; NEW KINOMEscan
[7] = target: kinases (KINOMEscan panel) (Homo sapiens, UniProt P16591); settings: FER; NEW KINOMEscan
kinases (KINOMEscan panel) (Homo sapiens, UniProt P16591), sequence (P16591 whole entry): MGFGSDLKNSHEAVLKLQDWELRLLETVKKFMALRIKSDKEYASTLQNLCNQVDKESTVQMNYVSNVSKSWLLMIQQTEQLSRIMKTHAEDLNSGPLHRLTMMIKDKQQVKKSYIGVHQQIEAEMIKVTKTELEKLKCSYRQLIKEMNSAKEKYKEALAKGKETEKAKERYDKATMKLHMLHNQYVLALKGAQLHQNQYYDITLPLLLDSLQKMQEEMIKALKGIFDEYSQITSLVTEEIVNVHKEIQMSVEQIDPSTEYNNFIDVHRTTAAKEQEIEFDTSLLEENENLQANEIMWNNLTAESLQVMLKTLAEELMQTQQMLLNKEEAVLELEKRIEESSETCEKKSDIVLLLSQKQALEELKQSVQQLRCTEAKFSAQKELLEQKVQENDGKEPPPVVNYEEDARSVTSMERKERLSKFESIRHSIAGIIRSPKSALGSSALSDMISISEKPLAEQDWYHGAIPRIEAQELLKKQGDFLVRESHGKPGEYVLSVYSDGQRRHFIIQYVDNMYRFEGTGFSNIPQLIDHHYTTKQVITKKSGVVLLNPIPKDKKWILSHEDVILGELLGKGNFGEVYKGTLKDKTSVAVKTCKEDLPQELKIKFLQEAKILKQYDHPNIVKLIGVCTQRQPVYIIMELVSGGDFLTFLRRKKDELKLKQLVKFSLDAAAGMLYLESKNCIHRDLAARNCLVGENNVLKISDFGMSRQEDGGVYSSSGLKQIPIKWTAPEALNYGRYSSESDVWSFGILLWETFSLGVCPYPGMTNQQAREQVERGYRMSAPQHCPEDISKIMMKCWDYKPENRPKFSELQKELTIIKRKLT

kinases (KINOMEscan panel) (Homo sapiens, UniProt Q00535), sequence (Q00535 whole entry): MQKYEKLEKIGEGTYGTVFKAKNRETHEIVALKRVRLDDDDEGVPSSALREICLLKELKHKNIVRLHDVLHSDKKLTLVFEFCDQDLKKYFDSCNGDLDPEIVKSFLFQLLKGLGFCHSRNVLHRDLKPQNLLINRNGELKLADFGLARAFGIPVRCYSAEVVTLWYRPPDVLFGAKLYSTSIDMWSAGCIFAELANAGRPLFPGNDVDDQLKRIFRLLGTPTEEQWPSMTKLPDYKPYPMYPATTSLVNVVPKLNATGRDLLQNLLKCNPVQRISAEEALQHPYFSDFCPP
kinases (KINOMEscan panel) (Homo sapiens, UniProt Q8NEV4), sequence (Q8NEV4 whole entry): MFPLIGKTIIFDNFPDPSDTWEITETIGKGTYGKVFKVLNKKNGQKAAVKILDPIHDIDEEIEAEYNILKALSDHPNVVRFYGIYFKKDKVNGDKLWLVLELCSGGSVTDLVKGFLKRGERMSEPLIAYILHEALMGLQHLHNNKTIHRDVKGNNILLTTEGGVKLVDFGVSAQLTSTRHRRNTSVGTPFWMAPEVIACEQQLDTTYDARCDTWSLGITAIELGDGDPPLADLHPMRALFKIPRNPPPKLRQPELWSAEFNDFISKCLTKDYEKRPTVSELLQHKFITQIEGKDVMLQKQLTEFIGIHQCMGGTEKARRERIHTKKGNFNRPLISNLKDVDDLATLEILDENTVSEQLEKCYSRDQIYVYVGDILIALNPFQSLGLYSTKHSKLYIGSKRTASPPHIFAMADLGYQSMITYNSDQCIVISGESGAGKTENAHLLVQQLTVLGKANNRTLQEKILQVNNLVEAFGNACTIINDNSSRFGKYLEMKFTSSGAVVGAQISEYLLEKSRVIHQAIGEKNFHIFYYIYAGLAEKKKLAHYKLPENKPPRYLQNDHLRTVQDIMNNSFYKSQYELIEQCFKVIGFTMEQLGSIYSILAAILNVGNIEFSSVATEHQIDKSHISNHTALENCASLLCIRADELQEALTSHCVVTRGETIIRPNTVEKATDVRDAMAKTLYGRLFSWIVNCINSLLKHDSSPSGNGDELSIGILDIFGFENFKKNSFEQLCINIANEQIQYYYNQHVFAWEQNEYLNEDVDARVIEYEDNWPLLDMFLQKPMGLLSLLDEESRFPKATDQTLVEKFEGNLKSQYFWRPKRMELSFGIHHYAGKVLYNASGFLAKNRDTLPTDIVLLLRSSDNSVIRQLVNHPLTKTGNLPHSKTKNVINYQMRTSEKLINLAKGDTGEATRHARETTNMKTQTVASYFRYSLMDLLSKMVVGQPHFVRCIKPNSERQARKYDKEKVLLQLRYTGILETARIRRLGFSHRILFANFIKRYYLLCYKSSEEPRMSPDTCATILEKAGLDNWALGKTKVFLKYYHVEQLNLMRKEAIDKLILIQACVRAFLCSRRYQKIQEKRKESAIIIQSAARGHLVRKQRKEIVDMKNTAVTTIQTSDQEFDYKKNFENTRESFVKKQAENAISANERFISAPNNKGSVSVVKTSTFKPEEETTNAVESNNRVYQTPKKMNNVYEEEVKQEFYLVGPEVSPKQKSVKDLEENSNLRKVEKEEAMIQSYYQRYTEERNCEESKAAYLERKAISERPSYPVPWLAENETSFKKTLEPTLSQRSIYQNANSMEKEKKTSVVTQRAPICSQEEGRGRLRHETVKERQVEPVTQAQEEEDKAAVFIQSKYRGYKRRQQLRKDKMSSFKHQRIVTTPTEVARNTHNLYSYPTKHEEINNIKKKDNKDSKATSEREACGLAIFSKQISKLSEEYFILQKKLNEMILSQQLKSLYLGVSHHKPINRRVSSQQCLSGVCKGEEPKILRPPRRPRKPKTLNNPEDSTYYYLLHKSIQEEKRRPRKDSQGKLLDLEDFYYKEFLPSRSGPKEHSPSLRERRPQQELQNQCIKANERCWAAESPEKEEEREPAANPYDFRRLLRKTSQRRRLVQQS
kinases (KINOMEscan panel) (Homo sapiens, UniProt O94921), sequence (O94921 whole entry): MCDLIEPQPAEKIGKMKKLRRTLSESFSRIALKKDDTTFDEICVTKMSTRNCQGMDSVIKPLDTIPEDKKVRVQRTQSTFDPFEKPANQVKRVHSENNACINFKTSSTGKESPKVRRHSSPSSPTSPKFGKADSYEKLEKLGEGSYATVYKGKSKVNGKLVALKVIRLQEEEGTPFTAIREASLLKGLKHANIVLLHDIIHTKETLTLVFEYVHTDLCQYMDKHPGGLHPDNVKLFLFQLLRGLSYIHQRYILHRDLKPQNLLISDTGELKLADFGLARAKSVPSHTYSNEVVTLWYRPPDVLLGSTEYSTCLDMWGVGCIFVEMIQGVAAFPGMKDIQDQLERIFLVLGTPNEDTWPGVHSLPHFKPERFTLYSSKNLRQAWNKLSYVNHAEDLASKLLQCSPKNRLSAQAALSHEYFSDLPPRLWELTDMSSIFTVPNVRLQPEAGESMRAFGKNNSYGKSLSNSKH

SMILES | KINOMEscan CDK5 [1] | KINOMEscan PHKG2 [2] | KINOMEscan CDK14 [3] | KINOMEscan MAP4K2 [4] | KINOMEscan EPHB4 [5] | KINOMEscan MYO3A [6] | KINOMEscan FER [7]
Cc1cccc(-c2nc(Nc3ccc4nn(C)cc4c3)c3ccccc3n2)n1 [NK167] | 14 | 0 | 17 | 0 | 0 | 0 | 0
Cc1cccc(-c2nc(N(C)c3ccc4ncsc4c3)c3ccccc3n2)n1 [NK-161] | 19 | 0 | 0 | 6 | 0 | 0 | 0
